The record followed here is PMC4775997, “Imidazopyridazine Inhibitors of Plasmodium falciparum Calcium-Dependent Protein Kinase 1 Also Target Cyclic GMP-Dependent Protein Kinase and Heat Shock Protein 90 To Kill the Parasite at Different Stages of Intracellular Development” (Antimicrobial Agents and Chemotherapy, 2016).

Read-outs that look alike come from different tables or passages of the source. A value given as a limit tells only on which side of the number the result lay.

One assay concerns the target PfHSP90 (Plasmodium falciparum, UniProt Q8IC05). Put plainly: Tryptophan fluorescence binding, full-length PfHSP90. The note with it: tryptophan fluorescence 346 nm; [SE] of triplicate measurements; read-out: Kd, full-length PfHSP90. The procedure:
The PCR product was cloned into pRSET-A (Life Technologies) between the BamHI and XhoI sites. Positive clones were confirmed by restriction digestion and sequencing. The clone was transformed into Escherichia coli Rosetta(pLysS) cells, and protein was expressed by induction with 0.1 mM isopropyl β-D-1-thiogalactopyranoside (IPTG) at 37°C for 2 h. PfHSP90 proteins were purified using Ni-nitrilotriacetic acid (NTA) affinity chromatography (Qiagen) as described in the manufacturer's protocol.
Tryptophan fluorescence analysis was performed using a PerkinElmer LS55 luminescence spectrometer. […] The binding buffer used for the reaction contained 50 mM Tris-HCl, pH 7.4, and 1 mM EDTA. Samples were excited at 280 nm, and tryptophan fluorescence measurements were carried out by scanning the emission spectrum in the wavelength range 300 to 400 nm. A maximum wavelength (λmax) of 346 nm was selected for all the calculations. The slit widths of excitation and emission were set at 2.5 and 5 nm, respectively. The difference in fluorescence intensity between protein alone and protein with various concentrations of 17-AAG or compound D was calculated and plotted against the different concentrations of the respective ligand used. The resultant hyperbolic curve was analyzed with GraphPad Prism software, using nonlinear regression analysis with single-site-specific binding as described previously ([32]).

The next assay concerns the target PfHSP90-NTD (Plasmodium falciparum, UniProt Q8IC05). The assay can be described thus: Tryptophan fluorescence binding, PfHSP90 N-terminal domain. The note with it: tryptophan fluorescence 346 nm; [SE] of triplicate measurements; read-out: Kd, PfHSP90-NTD. The source says:
PfCDPK1 and PfCDPK1 T145G proteins were produced using methods described elsewhere ([23]). The PfHSP90 N-terminal domain (NTD) comprises the first 223 amino acids of PfHSP90. This region was amplified from the full-length PfHSP90-pRSET-A construct ([32]) using the following primers: primer 7, […]; primer 8, […].
The PCR product was cloned into pRSET-A (Life Technologies) between the BamHI and XhoI sites. Positive clones were confirmed by restriction digestion and sequencing. The clone was transformed into Escherichia coli Rosetta(pLysS) cells, and protein was expressed by induction with 0.1 mM isopropyl β-D-1-thiogalactopyranoside (IPTG) at 37°C for 2 h. […]
Tryptophan fluorescence analysis was performed using a PerkinElmer LS55 luminescence spectrometer. […] Samples were excited at 280 nm, and tryptophan fluorescence measurements were carried out by scanning the emission spectrum in the wavelength range 300 to 400 nm. […] The difference in fluorescence intensity between protein alone and protein with various concentrations of 17-AAG or compound D was calculated and plotted against the different concentrations of the respective ligand used. The resultant hyperbolic curve was analyzed with GraphPad Prism software, using nonlinear regression analysis with single-site-specific binding as described previously ([32]).

The next assay deals with 3D7 PKG T618Q. Put plainly: microbe, parasite or virus in culture. The format is cell-based, Plasmodium falciparum. The note with it: for EC50: read-out: Parasite inhibition EC50, 3D7 PKG T618Q; for Ratio 3D7 PKG T618Q/3D7: Table S2.
For another assay, the target named is T1, PfPKG (Plasmodium falciparum, UniProt Q8I719).
T1 construct: plasmids (pTrcHisC) encoding full-length PfPKG and PfPKG T618Q with N-terminal His tags; His tag (N); made in house; host or cells: E. coli Rosetta2(DE3)
The assay can be described thus: Microfluidic fluorescent shift assay of cGMP-dependent protein kinase activity. The format is biochemical.

The test system of assay [1] is P. falciparum 3D7. The assay can be described thus: SYBR green I growth assay, wild-type parasites. The format is cell-based, Plasmodium falciparum. The note with it: for EC5048/EC5096 ratio: Table 1.
For a further assay, the target named is CDPK1 (Plasmodium falciparum, UniProt P62344). Put plainly: biochemical. The format is biochemical. The note with it: read-out: Enzyme inhibition IC50, CDPK1.
Chain of CDPK1 (P62344 whole entry): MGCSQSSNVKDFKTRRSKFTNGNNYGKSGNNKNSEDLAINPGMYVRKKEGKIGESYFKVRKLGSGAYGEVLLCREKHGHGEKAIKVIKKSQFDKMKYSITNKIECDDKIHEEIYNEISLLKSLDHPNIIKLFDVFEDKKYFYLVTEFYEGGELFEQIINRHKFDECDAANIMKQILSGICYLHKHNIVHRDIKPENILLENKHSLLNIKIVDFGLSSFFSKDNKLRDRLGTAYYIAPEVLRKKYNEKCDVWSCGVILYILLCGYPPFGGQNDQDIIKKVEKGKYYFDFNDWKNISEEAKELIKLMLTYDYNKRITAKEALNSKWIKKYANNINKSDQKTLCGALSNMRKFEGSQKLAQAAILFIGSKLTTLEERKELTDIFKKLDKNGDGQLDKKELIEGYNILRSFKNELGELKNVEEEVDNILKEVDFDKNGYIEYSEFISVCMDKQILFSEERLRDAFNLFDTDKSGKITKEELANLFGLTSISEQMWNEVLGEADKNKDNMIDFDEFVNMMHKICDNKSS
The subject of assay [2] is P. falciparum 3D7. Put plainly: Microscopic examination of Giemsa-stained smears (stage of action). The note with it: for Stage of action (before or after DNA synthesis): Table S1, ring-stage parasites, 10x EC50 for 48 h; for Stage of action: ring stage parasites treated with 10 times the 96-h EC50 for 48 h.
Another assay has as its target T2, PfPKG T618Q (Plasmodium falciparum, UniProt Q8I719, T618Q).
T2 construct: plasmids (pTrcHisC) encoding full-length PfPKG and PfPKG T618Q with N-terminal His tags; His tag (N); made in house; host or cells: E. coli Rosetta2(DE3)
Put plainly: biochemical. The format is biochemical.

Where [3] appears, read: Table 2, SYBR green I, 96 h, single experiment, or mean (SD) of duplicate assays.
The mark [4] stands for this setting: read-out: Enzyme inhibition IC50, PKG.
The mark [5] stands for this setting: SYBR green I, 48 h incubation, mean of three independent experiments (SD), read-out: EC50 after treatment for 48 h.
[6] abbreviates: SYBR green I, 96 h incubation, mean of three independent experiments (SD), read-out: EC50 after treatment for 96 h.
The mark [7] stands for this setting: Table 2, SYBR green I, 96 h, single experiment, or mean (SD) of duplicate assays, read-out: Parasite inhibition EC50, 3D7.
The mark [8] stands for this setting: Table S1, single experiment with duplicate samples, or mean of triplicate experiments (SD), read-out: EC50 48 hours.
[9] abbreviates: Table 2, ATP at Km 90 μM, read-out: Enzyme inhibition IC50, PKG T618Q.
The mark [10] stands for this setting: Table S2, read-out: Enzyme inhibition IC50, PKG.
[11] abbreviates: Table S1, single experiment with duplicate samples, or mean of triplicate experiments (SD), read-out: EC50 96 hours.
Where [12] appears, read: Table S2, read-out: Enzyme inhibition IC50, PKG T618Q.

T2 sequence (Q8I719 whole entry T618Q): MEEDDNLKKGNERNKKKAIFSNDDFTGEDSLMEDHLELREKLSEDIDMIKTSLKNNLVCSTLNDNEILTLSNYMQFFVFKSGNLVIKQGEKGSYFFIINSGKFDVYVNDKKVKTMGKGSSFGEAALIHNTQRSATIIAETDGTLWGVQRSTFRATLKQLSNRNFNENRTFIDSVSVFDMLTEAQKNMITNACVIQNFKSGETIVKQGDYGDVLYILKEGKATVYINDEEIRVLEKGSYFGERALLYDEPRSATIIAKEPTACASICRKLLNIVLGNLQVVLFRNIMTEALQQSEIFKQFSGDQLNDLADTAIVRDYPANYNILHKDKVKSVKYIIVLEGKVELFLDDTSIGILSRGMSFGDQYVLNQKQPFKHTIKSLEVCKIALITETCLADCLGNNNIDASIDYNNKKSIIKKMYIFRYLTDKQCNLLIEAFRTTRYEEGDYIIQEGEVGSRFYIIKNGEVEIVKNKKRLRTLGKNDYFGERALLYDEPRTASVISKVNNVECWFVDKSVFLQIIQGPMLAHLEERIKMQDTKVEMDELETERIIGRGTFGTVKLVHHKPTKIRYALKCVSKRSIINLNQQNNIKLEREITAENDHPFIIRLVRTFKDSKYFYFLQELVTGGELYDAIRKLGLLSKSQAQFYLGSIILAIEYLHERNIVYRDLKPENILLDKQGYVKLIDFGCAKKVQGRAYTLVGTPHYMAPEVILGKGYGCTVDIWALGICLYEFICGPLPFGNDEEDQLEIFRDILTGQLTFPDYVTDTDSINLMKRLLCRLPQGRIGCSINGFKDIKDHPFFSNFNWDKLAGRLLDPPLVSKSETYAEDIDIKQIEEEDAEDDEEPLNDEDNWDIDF
Chain of PfHSP90 (Q8IC05 entry or part of it): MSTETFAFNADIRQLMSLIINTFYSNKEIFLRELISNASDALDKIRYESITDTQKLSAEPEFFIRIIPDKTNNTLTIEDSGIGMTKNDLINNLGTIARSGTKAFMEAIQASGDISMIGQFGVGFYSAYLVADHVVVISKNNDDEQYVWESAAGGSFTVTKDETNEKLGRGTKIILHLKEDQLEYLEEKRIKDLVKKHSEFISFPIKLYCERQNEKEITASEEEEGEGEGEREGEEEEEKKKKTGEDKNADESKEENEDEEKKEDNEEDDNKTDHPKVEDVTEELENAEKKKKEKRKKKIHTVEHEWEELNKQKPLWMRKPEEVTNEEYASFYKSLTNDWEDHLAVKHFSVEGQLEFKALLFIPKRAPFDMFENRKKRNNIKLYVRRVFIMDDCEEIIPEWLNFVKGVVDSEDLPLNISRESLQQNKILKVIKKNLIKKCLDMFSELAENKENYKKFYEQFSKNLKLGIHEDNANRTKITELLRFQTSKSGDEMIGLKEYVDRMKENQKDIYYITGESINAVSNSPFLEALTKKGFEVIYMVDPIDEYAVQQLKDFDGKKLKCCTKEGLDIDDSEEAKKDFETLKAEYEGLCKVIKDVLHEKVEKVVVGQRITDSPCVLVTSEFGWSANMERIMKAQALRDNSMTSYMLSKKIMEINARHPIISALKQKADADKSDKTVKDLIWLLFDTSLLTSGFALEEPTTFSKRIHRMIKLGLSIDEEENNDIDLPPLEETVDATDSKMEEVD
Chain of PfHSP90-NTD (Q8IC05 entry or part of it): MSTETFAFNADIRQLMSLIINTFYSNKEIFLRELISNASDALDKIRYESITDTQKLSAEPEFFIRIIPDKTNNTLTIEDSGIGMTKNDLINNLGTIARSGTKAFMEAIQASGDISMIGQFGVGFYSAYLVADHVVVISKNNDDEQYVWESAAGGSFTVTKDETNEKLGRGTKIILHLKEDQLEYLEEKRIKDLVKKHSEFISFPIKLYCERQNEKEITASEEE

`C=CCNC1=C2C[C@@H](C)C[C@H](OC)[C@H](O)[C@@H](C)/C=C(\C)[C@H](OC(N)=O)[C@@H](OC)/C=C\C=C(/C)C(=O)NC(=CC1=O)C2=O` [Compound 17-AAG, 17-N-allylamino-17-demethoxygeldanamycin, reference compound]: the dissociation constant Kd at PfHSP90 amounted to 8.7 µM; at PfHSP90-NTD, 15.8 µM.

Turning to `NC1CCC(Nc2ccc3ncc(-c4cnc(Nc5ccccn5)c(F)c4)n3n2)CC1` (stereo not shown) [Compound 20], the EC50 was 0.386 µM in the assay on 3D7 PKG T618Q (Plasmodium falciparum, 3D7, 96 h); 0.3 µM in the assay on P. falciparum 3D7 [1] (Plasmodium falciparum, 3D7, 48 h, read-out: EC50 48 hours); 0.298 µM in the assay with P. falciparum 3D7 [1] (Plasmodium falciparum, 3D7, 48 h, read-out: EC50 after treatment for 48 h); 0.14 µM in the assay on P. falciparum 3D7 [1] (Plasmodium falciparum, 3D7, 96 h, read-out: EC50 96 hours); 0.142 µM in the assay on P. falciparum 3D7 [1] (Plasmodium falciparum, 3D7, 96 h, read-out: EC50 after treatment for 96 h); 0.21 µM in the assay with P. falciparum 3D7 [1] (Plasmodium falciparum, 3D7, 96 h, read-out: Parasite inhibition EC50, 3D7). For the same molecule, the “3D7 PKG T618Q/3D7 EC50 ratio” value with 3D7 PKG T618Q (Table 2) is reported as 1.8. In addition, the “Ratio 3D7 PKG T618Q/3D7” value in the assay with 3D7 PKG T618Q was 2. The concentration for half-maximal inhibition (IC50) turned out to be 0.012 µM on PfPKG, 0.008 µM at CDPK1 (Table 2) and 15.3 µM against PfPKG T618Q. Moreover, the EC5048/EC5096 ratio in the assay with P. falciparum 3D7 [1] amounted to 2.1. Further, the “ratio EC5048:EC5096” value with P. falciparum 3D7 [1] (Table S1) came out at 2.1. In addition, the “Stage of action (before or after DNA synthesis)” value in the assay on P. falciparum 3D7 [2] is listed as “trophozoite”. The Stage of action result in the assay on P. falciparum 3D7 [2] is “Trophozoite”.

As for `CC(C)CCNc1ccc(-c2cnc3ccc(NC4CCN(C)C4)nn23)cn1` (stereo not shown) [Compound 22], the “3D7 PKG T618Q/3D7 EC50 ratio” value in the assay on 3D7 PKG T618Q (Table 2) worked out at 1.4. Further, the concentration giving a half-maximal response (EC50) was found to be 0.303 µM with 3D7 PKG T618Q (setting [3]); 0.546 µM in the assay on P. falciparum 3D7 [1] (setting [5]); 0.3 µM with P. falciparum 3D7 [1] (setting [6]); 0.215 µM in the assay with P. falciparum 3D7 [1] (setting [7]); 0.55 µM with P. falciparum 3D7 [1] (setting [8]). Also, the “Ratio 3D7 PKG T618Q/3D7” value in the assay with 3D7 PKG T618Q stood at 1. Moreover, the half-maximal inhibitory concentration (IC50) at PfPKG (setting [4]) is greater than 1 µM; at CDPK1 (Table 2), 0.074 µM; on PfPKG T618Q (setting [9]), 37.5 µM. Besides, the EC5048/EC5096 ratio in the assay on P. falciparum 3D7 [1] worked out at 1.8. In the assay with P. falciparum 3D7 [1] (Table S1), the “ratio EC5048:EC5096” value is given as 1.8. Further, the “Stage of action (before or after DNA synthesis)” value with P. falciparum 3D7 [2] is given as “trophozoite (before)”. Further, in the assay with P. falciparum 3D7 [2], the Stage of action result is “Trophozoite”. Also, the “Selectivity (PKG T618Q/PKG IC50 ratio)” value at PfPKG T618Q (Table 2) was less than 38.

In the case of `c1ccc(Nc2ncc(-c3cnc4ccc(NC5CCNCC5)nn34)cn2)nc1` [Compound 26], the IC50 on PfPKG (setting [10]) stood at 0.02 µM; at CDPK1 (Table S2), 0.009 µM; on PfPKG T618Q (setting [12]) it was 3.28 µM. The “ratio EC5048:EC5096” value in the assay on P. falciparum 3D7 [1] (Table S1) was 4.2. Further, the EC50 with P. falciparum 3D7 [1] (setting [8]) is 0.83 µM; with P. falciparum 3D7 [1] (setting [11]) it was 0.2 µM. For the same molecule, the “Selectivity PKG T618Q/PKG” value on PfPKG T618Q (Table S2) worked out at 161.

Turning to `Fc1cc(-c2cnc3ccc(NC4CCNCC4)nn23)cnc1Nc1cnccn1` [Compound 27], the IC50 came to 0.101 µM at PfPKG (setting [10]), 0.017 µM at CDPK1 (Table S2) and 10 µM at PfPKG T618Q (setting [12]). Besides, the “ratio EC5048:EC5096” value in the assay on P. falciparum 3D7 [1] (Table S1) amounted to 5.1. Moreover, the EC50 with P. falciparum 3D7 [1] (setting [8]) was 4.3 µM; with P. falciparum 3D7 [1] (setting [11]) it was 0.84 µM. At PfPKG T618Q (Table S2), the “Selectivity PKG T618Q/PKG” value is 99.

For the molecule `Fc1cccnc1Nc1ncc(-c2cnc3ccc(NC4CCC(N5CCNCC5)CC4)nn23)cn1` (stereo not shown) [Compound 28], the “3D7 PKG T618Q/3D7 EC50 ratio” value in the assay on 3D7 PKG T618Q (Table 2) was found to be 10.8. Besides, the EC50 in the assay on 3D7 PKG T618Q (setting [3]) was found to be 0.64 µM; with P. falciparum 3D7 [1] (setting [5]), 0.168 µM; in the assay on P. falciparum 3D7 [1] (setting [6]), 0.038 µM; with P. falciparum 3D7 [1] (setting [7]), 0.059 µM; in the assay on P. falciparum 3D7 [1] (setting [8]), 0.17 µM; in the assay on P. falciparum 3D7 [1] (setting [11]) it was 0.04 µM. In addition, the “Ratio 3D7 PKG T618Q/3D7” value in the assay on 3D7 PKG T618Q is reported as 11. Further, the half-maximal inhibitory concentration (IC50) at PfPKG (setting [4]) was 0.003 µM; at CDPK1 (Table 2) it was 0.012 µM; on PfPKG T618Q (setting [9]) it was 31.7 µM. For the same molecule, the values for the EC5048/EC5096 ratio in the assay with P. falciparum 3D7 [1] and in the assay on P. falciparum 3D7 [1] (listed as Compound 28) were 4.4 and “less than 5”, respectively. Also, the “ratio EC5048:EC5096” value in the assay with P. falciparum 3D7 [1] (Table S1) is 4.4. Besides, in the assay with P. falciparum 3D7 [2], the “Stage of action (before or after DNA synthesis)” value is reported as “late schizont (after)”. Besides, the figures for the Stage of action result with P. falciparum 3D7 [2] and with P. falciparum 3D7 [2] (listed as Compound 28) were “Late schizont” and “arrest parasites in late schizogony”, respectively. Also, the “Selectivity PKG T618Q/PKG” value on PfPKG T618Q (Table S2) is listed as 12100.

One may read the Kd as a measure of binding affinity in units of concentration. Usually EC50 stands for the concentration needed to bring the measured effect to its halfway point. Usually IC50 stands for the concentration that gives 50% inhibition.
